# From ChEMBL document CHEMBL1201862, “PubChem BioAssay data set” (2004)
# Activity calls are given as the source filed them.
# Key:
# [1] = M. tuberculosis H37Rv growth inhibitors, H37Rv strain (AID 1626); type: functional
# Bcl-2-like protein 10 = molecular target: T1, Bcl-2-like protein 10 (Homo sapiens, UniProt Q9HD36); experiment: displacers of TR3 peptide from Bcl-B, primary screen, selectivity assay for Bfl-1 inhibitor project, biochemical, fluorescence polarization, FITC-TR3 peptide (AID 748);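 further: fluorescence polarization from a fluorescein-labelled TR3 peptide binding purified Bcl-B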
# T1 sequence (Q9HD36 whole entry): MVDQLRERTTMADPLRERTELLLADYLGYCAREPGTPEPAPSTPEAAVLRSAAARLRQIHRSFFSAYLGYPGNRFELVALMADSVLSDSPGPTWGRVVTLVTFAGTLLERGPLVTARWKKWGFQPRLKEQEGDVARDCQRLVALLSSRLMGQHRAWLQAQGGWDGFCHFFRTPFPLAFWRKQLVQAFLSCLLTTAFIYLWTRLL
# [2] = molecular target: T2, Carboxy-terminal domain RNA polymerase II polypeptide A small phosphatase 1 (Homo sapiens, UniProt Q9GZU7); experiment: inhibitors of CTDSP1, concentration-response testing, biochemical assay, absorbance-based, actives from ultra-high-throughput screening (AID 540297); type: functional
# T2 sequence (Q9GZU7 whole entry): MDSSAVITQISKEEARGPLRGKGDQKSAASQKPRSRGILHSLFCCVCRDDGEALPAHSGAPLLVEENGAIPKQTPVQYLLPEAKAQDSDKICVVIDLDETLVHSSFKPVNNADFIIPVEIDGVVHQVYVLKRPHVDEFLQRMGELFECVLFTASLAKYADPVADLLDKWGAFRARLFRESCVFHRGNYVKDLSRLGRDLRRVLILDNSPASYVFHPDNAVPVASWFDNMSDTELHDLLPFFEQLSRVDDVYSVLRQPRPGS
# [3] = molecular target: T3, DNA dC->dU-editing enzyme APOBEC-3A (Homo sapiens, UniProt P31941); experiment: Dose Response confirmation of small molecule APOBEC3A DNA Deaminase Inhibitors via a fluorescence-based single-stranded DNA deaminase assay. [Related pubchem assays (depositor defined):AID493011, AID493024]; type: functional
# T3 sequence (P31941 whole entry): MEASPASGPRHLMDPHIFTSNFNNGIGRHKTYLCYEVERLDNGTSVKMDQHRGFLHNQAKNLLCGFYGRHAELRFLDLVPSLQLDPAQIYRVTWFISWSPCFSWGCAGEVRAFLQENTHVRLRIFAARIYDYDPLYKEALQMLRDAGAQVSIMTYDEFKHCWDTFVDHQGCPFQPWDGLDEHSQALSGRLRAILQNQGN
# cells = type: functional, cell-based; details: HEK-CNG
# Ion channel NompC = Ion channel NompC (Danio rerio, UniProt Q7T1G6); experiment: Fluorescence counterscreen assay for TRPML3 agonists: dose response cell-based high-throughput screening assay to identify agonists of the transient receptor potential channel N1 (TRPN1). [Related pubchem assays: 1526, 1424, 1448 ]; type: functional
# [4] = molecular target: T4, DNA dC->dU-editing enzyme APOBEC-3G (Homo sapiens, UniProt Q9HC16); type: functional
# T4 sequence (Q9HC16 whole entry): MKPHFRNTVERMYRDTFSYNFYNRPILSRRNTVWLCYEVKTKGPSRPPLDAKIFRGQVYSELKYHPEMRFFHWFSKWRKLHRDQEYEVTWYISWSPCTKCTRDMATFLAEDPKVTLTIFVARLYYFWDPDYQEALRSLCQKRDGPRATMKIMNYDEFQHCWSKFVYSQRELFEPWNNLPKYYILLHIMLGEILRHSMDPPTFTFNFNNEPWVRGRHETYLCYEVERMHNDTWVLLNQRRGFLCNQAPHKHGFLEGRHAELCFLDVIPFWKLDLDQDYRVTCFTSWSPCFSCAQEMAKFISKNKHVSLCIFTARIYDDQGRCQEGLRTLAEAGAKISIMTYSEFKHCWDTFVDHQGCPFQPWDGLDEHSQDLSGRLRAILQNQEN
# Mucolipin-3 = molecular target: T5, Mucolipin-3 (Homo sapiens, UniProt Q8TDD5); experiment: Dose response cell-based high-throughput screening assay for agonists of the transient receptor potential channel ML3 (TRPML3). [Related pubchem assays: 1526, 1424, 1448 ]; type: functional
# T5 sequence (Q8TDD5 whole entry): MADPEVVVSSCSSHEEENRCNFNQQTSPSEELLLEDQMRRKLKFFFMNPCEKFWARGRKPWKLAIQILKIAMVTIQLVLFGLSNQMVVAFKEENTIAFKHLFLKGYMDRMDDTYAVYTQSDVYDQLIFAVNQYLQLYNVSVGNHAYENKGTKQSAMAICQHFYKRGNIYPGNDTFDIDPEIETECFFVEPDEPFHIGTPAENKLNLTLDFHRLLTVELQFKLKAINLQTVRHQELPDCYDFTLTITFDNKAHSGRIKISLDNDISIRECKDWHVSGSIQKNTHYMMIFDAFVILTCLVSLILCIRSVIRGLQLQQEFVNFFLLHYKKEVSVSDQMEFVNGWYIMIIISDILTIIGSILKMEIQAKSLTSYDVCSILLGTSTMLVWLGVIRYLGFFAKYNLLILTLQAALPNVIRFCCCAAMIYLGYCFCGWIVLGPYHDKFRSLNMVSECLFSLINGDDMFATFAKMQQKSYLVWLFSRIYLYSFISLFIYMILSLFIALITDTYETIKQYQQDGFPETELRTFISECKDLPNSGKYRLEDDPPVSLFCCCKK
# Galanin receptor type 3 = Galanin receptor type 3 (Homo sapiens, UniProt O60755); experiment: Fluorescence-based cell-based primary high throughput dose response assay to identify antagonists of the Galanin Receptor 3 (GalR3).; type: functional
# Galanin receptor type 3, sequence (O60755 whole entry): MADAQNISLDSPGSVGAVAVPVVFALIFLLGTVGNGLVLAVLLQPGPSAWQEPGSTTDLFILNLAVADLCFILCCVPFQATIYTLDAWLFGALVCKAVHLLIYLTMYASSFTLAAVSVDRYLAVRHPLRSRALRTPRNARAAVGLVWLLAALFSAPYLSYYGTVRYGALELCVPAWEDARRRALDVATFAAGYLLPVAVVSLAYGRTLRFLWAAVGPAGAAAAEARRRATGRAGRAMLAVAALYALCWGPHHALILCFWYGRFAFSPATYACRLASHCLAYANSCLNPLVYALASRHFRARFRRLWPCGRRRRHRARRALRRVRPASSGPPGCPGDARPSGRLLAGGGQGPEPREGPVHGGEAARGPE
# HEK293 [5] = experiment: inhibitors of LMP1-driven NF-kB reporter, dose response, cell-based, HEK293, luciferase, cherry-pick (AID 588343); type: functional; details: Homo sapiens
# [6] = molecular target: G-protein coupled receptor 35 (Homo sapiens, UniProt Q9HC97); experiment: GPR35 antagonists blocking zaprinast-driven arrestin recruitment, primary screen, imaging, U2OS, beta-arrestin-GFP, zaprinast agonist (AID 2058); type: functional;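 further: antagonist potency meaning inhibition of agonist-induced arrestin redistribution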
# G-protein coupled receptor 35, sequence (Q9HC97 whole entry, the tested form may be a part): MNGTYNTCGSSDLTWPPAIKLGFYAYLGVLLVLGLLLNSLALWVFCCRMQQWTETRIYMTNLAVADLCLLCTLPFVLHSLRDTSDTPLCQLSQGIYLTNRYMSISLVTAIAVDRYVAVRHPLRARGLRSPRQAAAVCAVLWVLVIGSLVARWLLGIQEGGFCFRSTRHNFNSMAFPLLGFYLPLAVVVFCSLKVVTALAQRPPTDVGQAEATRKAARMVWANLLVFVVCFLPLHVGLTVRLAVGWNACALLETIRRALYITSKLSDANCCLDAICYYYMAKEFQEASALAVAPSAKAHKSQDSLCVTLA
# [7] = molecular target: T6, RNA-binding protein pos-1 (Caenorhabditis elegans, UniProt G5EF15); experiment: inhibitors of POS-1/mex-3 RNA binding, dose response, biochemical, fluorescence polarization (AID 1964);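 further: purified POS-1 fused to maltose binding protein made in E. coli; potency of compounds blocking POS-1 binding to fluorescent RNA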
# T6 sequence (G5EF15 whole entry): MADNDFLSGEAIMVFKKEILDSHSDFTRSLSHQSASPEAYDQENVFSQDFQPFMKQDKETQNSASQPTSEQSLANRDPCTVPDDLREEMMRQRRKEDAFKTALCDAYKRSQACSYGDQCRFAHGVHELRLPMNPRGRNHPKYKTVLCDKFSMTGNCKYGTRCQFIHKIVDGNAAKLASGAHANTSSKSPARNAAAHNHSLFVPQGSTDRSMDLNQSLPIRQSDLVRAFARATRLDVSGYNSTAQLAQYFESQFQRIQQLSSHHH
# [8] = molecular target: T7, Zinc finger protein mex-5 (Caenorhabditis elegans, UniProt Q9XUB2); experiment: MEX-5/TCR-2 RNA interaction inhibitors, dose response, biochemical, C. elegans, fluorescence polarization (AID 1960)
# T7 sequence (Q9XUB2 whole entry): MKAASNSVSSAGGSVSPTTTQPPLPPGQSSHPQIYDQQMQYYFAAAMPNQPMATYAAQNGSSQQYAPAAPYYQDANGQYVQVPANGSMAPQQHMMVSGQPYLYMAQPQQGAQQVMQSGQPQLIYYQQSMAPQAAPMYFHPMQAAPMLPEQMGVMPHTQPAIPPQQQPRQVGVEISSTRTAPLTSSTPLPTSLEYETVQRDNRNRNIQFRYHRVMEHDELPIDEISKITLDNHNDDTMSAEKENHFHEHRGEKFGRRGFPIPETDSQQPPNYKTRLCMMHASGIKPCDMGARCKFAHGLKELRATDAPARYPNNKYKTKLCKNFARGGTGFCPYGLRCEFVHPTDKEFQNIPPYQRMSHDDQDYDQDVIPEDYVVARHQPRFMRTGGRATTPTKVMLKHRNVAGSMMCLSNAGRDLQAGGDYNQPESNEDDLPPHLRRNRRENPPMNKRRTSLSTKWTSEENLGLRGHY
# [9] = cytotoxicity in HEK-293T cells, dose response, cytotoxicity control for TCR NF-kB inhibitor project, luminescence, T-cell screen hits (AID 489026); type: functional, cell-based;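 further: cells exposed to compound about 14 hours before the viability readout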
# Vero [10] = experiment: host cell cytotoxicity of antiviral hits, dose response, cytotoxicity control for West Nile virus antiviral project, secondary assay (AID 1650); type: functional; details: Chlorocebus sabaeus
# [11] = control 3'UTR Renilla luciferase suppression, dose response, counter-screen for Shn3 inhibitor project, cell-based, Clone20-Shn3RL, cherry-picked (AID 624133); type: functional
# [12] = Shn3 3'UTR reporter inhibitors, dose response, cell-based, Clone20 osteoblasts, firefly luciferase, cherry-picked (AID 624132); type: functional;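 further: firefly luciferase luminescence from reporter carrying the Shn3 3'UTR in osteoblasts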
# [13] = molecular target: T8, Probable nicotinate-nucleotide adenylyltransferase (Staphylococcus aureus (strain N315), UniProt P65502); type: functional, Staphylococcus aureus subsp. aureus N315;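 on IC50 Mean: confirmatory dose-response retesting of NadD inhibitor hits first found in an ultra-high-throughput screen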
# T8 sequence (P65502 whole entry): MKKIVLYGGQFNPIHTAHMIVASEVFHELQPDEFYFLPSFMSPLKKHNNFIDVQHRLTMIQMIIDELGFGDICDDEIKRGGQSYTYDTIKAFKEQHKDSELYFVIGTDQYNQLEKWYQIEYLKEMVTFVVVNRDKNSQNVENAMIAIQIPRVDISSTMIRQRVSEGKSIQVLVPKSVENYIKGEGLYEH
# [14] = molecular target: T8, Probable nicotinate-nucleotide adenylyltransferase; type: functional, Staphylococcus aureus subsp. aureus N315; details: read-out: IC50_Mean
# [15] = HIV-1 Env-mediated cell fusion inhibitors, dose response, CCR5-tropic Env (AID 2279); type: functional
# Fatty acid synthase [16] = molecular target: T9, Fatty acid synthase (Homo sapiens, UniProt P49327); experiment: FAS thioesterase domain inhibitors, dose response, biochemical, kinetic fluorescence intensity (AID 624326); type: functional;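 further: rate of fluorescence rise from hydrolysis of a fluorogenic O-methyl fluorescein ester substrate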
# T9 sequence (P49327 whole entry, the tested form may be a part): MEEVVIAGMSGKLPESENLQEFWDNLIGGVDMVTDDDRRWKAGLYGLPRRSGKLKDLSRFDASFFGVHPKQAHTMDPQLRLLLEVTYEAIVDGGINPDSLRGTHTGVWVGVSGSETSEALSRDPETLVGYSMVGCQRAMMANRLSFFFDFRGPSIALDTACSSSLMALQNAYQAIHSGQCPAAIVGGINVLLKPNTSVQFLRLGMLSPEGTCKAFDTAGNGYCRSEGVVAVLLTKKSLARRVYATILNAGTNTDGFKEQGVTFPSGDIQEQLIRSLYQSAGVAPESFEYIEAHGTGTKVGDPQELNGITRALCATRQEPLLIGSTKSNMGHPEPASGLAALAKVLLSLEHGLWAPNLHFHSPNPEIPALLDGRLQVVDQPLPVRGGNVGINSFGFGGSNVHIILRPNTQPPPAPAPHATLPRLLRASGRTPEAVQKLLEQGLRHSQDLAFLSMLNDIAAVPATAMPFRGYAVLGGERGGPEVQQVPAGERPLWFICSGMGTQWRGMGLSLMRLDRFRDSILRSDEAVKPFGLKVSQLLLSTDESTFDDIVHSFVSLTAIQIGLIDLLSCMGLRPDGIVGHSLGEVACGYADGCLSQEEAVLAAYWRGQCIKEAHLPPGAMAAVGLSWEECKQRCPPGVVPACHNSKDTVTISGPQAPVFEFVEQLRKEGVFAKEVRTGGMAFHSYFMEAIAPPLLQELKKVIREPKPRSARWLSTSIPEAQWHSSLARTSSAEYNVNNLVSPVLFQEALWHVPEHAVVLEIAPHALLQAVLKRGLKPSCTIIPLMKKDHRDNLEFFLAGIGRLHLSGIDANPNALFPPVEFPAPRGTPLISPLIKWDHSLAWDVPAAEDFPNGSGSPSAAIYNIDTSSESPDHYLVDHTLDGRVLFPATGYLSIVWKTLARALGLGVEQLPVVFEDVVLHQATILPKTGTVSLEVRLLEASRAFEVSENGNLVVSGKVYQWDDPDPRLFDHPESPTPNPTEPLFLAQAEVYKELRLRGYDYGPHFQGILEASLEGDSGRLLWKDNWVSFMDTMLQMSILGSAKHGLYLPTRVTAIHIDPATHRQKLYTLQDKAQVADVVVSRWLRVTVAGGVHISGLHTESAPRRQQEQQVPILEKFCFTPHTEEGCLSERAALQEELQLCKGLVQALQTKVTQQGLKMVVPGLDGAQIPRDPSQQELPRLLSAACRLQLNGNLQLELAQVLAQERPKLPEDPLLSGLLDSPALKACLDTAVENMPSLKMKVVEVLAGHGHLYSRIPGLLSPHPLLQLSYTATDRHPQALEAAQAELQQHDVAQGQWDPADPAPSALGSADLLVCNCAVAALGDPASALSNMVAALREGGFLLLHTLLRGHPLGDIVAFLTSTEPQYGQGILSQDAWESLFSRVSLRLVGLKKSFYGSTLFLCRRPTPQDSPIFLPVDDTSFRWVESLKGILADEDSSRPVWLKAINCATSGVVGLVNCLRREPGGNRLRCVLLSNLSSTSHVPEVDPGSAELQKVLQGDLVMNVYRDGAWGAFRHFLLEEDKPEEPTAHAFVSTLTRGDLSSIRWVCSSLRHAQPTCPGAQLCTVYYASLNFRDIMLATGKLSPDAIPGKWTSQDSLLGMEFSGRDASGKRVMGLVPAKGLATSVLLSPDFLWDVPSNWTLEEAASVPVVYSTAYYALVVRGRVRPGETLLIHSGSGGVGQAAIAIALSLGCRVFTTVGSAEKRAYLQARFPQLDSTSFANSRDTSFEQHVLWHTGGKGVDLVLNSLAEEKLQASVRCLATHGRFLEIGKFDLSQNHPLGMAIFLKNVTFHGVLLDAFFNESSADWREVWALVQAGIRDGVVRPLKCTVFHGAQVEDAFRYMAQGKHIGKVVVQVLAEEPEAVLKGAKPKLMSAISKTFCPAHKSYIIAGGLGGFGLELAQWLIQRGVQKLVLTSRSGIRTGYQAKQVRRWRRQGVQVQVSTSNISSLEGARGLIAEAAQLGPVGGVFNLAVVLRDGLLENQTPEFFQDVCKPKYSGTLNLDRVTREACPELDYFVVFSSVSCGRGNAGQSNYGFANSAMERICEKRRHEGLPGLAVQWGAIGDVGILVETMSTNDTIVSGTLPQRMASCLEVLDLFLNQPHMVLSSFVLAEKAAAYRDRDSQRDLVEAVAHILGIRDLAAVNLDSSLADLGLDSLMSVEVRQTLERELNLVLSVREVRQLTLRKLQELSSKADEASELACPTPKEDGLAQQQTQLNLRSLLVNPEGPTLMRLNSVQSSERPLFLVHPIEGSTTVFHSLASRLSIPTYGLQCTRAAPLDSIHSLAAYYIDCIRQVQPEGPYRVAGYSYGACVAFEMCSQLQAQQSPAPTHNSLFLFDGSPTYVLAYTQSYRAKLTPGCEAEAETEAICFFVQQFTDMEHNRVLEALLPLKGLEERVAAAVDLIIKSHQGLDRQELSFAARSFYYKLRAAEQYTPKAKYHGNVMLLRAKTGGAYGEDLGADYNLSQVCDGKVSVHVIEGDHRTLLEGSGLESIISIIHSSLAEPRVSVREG
# Fatty acid synthase [17] = molecular target: T9, Fatty acid synthase; experiment: FAS thioesterase domain inhibitors, dose response, biochemical, endpoint fluorescence intensity, uHTS hits (AID 624327); type: functional;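 further: fluorescence from hydrolysis of an O-methyl fluorescein acyl ester substrate by the enzyme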
# [18] = molecular target: T4, DNA dC->dU-editing enzyme APOBEC-3G; experiment: Dose Response confirmation of small molecule APOBEC3G DNA Deaminase Inhibitors via a fluorescence-based single-stranded DNA deaminase assay. [Related pubchem assays (depositor defined):AID493012, AID493028]; type: functional
# [19] = molecular target: T3, DNA dC->dU-editing enzyme APOBEC-3A; experiment: APOBEC3A DNA deaminase inhibitors, dose response, biochemical (AID 504722); type: functional
# [20] = molecular target: Peroxisome proliferator-activated receptor gamma/Nuclear receptor coactivator 3 (Homo sapiens, UniProt P37231); type: functional;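 further: agonist potency for raising coactivator recruitment to the receptor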
# [21] = molecular target: Peroxisome proliferator-activated receptor gamma/Nuclear receptor coactivator 2 (Homo sapiens, UniProt P37231); type: functional;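 further: agonist potency for raising coactivator recruitment to the receptor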
# [22] = molecular target: Peroxisome proliferator-activated receptor gamma/Nuclear receptor coactivator 1 (Homo sapiens, UniProt P37231); type: functional;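 further: agonist potency as compounds enhance coactivator SRC-1 recruitment to PPARgamma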
# [23] = molecular target: Acyl-homoserine lactone acylase PvdQ (Pseudomonas aeruginosa (strain LESB58), UniProt Q9I194); experiment: P. aeruginosa PvdQ acylase inhibitors, dose response, biochemical, fluorescence, plate reader and imaging, cherry-picks (AID 493231)
# Acyl-homoserine lactone acylase PvdQ, sequence (Q9I194 24-193 limits assumed): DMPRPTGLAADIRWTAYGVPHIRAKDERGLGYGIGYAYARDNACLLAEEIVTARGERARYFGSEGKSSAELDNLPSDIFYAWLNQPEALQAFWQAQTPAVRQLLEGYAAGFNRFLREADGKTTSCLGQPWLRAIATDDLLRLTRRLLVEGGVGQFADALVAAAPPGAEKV
# Acyl-homoserine lactone acylase PvdQ, sequence (Q9I194 217-762 limits assumed): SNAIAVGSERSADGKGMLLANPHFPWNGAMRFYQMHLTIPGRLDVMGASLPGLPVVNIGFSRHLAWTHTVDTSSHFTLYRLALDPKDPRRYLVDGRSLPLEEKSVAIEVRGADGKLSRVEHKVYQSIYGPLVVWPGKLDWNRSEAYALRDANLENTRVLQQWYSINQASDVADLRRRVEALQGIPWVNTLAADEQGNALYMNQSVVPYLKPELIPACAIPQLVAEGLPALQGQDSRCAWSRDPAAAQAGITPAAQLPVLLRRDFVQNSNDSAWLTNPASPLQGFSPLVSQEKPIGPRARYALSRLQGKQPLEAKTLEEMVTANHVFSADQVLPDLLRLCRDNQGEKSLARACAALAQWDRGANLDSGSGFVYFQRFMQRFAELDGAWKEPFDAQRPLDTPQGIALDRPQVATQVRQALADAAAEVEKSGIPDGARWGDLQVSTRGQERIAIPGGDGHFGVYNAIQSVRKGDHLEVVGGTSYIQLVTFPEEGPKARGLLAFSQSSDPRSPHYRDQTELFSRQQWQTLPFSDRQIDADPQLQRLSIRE
# HEK293 [24] = experiment: cells; type: functional, cell-based; details: Homo sapiens
# HEK293 [25] = experiment: NOD2 signaling inhibitors in MDP-stimulated cells, cell-based, uHTS, luminescence (AID 2001); type: functional; details: Homo sapiens
# HEK293 [26] = experiment: cells; type: functional, cell-based; details: Homo sapiens; remark: listed apart in the source
# Vero [27] = experiment: cells; type: functional; details: Chlorocebus sabaeus
# Vero [28] = experiment: cells; type: functional, cell-based; details: Chlorocebus sabaeus
# [29] = A Cell Based Secondary Assay To Explore Cytotoxicity of Compounds that Sensitize Mycobacterium Tuberculosis to Beta-Lactam Antibiotics.; type: functional
# HEK293 [30] = experiment: NOD1 signaling inhibitors, primary screen, cell-based, luminescence, uHTS (AID 1578); type: functional; details: Homo sapiens
# [31] = molecular target: T10, Type-1 angiotensin II receptor (Homo sapiens, UniProt P30556); experiment: AT1 receptor antagonists, dose response, selectivity assay for APJ receptor antagonist project, cell-based, uHTS hits (AID 463214); type: functional;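 further: antagonist potency against angiotensin II stimulated AT1 response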
# T10 sequence (P30556 whole entry): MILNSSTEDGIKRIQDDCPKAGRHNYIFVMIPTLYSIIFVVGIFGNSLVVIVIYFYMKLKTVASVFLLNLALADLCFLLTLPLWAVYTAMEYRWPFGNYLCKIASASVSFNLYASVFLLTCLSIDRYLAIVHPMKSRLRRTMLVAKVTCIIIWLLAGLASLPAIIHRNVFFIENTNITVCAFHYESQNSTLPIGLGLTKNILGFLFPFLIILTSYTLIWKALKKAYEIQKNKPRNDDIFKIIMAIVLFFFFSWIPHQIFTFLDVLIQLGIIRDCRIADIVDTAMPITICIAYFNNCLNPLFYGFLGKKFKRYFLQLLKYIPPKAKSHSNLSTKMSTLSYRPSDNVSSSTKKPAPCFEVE
# Beta-galactosidase = Beta-galactosidase (Escherichia coli, UniProt Q8VNN2); experiment: PubChem AID 485352; type: functional
smiles,measurement,setting,value
COc1ccc(N)cc1-n1cnnn1,IC50,[1],> 100 µM (active)
O=C(COC(=O)c1cncc(Br)c1)NCc1ccco1,IC50,Bcl-2-like protein 10,46.9 µM (active)
same,IC50,[2],4.6 µM (active)
C[N+](C)(C)C/C=C1/COCO1,IC50,[3],1.89 µM (active)
same,EC50,cells,> 29.9 µM (inactive)
same,EC50,Ion channel NompC,17.6 µM (not active)
same,IC50,[4],1.89 µM (active)
same,EC50,Mucolipin-3,4.76 µM (active)
same,IC50,Galanin receptor type 3,> 29.9 µM (inactive)
CC1(C)Cc2c(ccc3ccccc23)/C(=C/C(=O)N2CCCCC2)N1,AC50,HEK293 [5],26.1 µM (active)
same,IC50,[6],11 µM (inactive)
COc1cccc(C2C3CN(C)CC=C3C(C#N)=C(N)C2(C#N)C#N)c1OC (stereo unspecified),EC50,[7],2.18 µM (inconclusive)
same,IC50,[6],2.74 µM (active)
same,EC50,[8],8.49 µM (active)
CS(=O)(=O)c1ccc(Sc2nc3ccccc3s2)c([N+](=O)[O-])c1,IC50,[9],79.5 µM (inactive)
same,CC50,Vero [10],18.3 µM (active)
same,AC50,HEK293 [5],4.87 µM (active)
same,AC50,[11],31.2 µM (active)
same,AC50,[12],9.73 µM (active)
COc1ccc(-c2csc(NC(=O)c3ccccc3NS(=O)(=O)c3ccc(C)cc3)n2)cc1,IC50,[13],6.12 µM (active)
same,IC50,[14],60.1 µM (active)
same,IC50,[15],3.03 µM (active)
same,IC50,Fatty acid synthase [16],6.07 µM (active)
same,IC50,Fatty acid synthase [17],10.2 µM (active)
COCCCn1c(S)nnc1-c1ccc(Cl)cc1,IC50,[18],4.57 µM (active)
same,IC50,[19],> 100 µM (inactive)
CC(C)c1ccc(OCC(=O)NC(=S)Nc2ccc3c4c(cccc24)CC3)cc1,EC50,[20],> 79.4 µM (not active)
same,EC50,[21],> 79.4 µM (not active)
same,EC50,[22],> 79.4 µM (not active)
CCOc1ccc(-n2cccc2C=O)cc1,AC50,[23],7.29 µM (active)
Cc1cc(NC(=O)c2cc(F)c(F)cc2Cl)no1,AC50,[23],24 µM (active)
Cn1c(/C=C/c2ccc(Br)cc2)c([N+](=O)[O-])c(=O)n(C)c1=O,IC50,HEK293 [24],4.31 µM (active)
same,IC50,HEK293 [25],4.87 µM (active)
same,IC50,HEK293 [26],14.3 µM (active)
same,CC50,Vero [10],16 µM (active)
same,CC50,Vero [27],12.1 µM (active)
same,IC50,Vero [28],23.9 µM (active)
same,CC50,[29],21.9 µM (active)
same,EC50,HEK293 [30],14.4 µM (active)
COc1ccc(NC2(c3ccc(Cl)cc3)C(=O)c3ccccc3C2=O)cc1,IC50,[31],17.9 µM (active)
same,IC50,[1],> 100 µM (active)
same,EC50,Beta-galactosidase,> 40 µM (inactive)
CCn1c(SCC(=O)Nc2ccc(Cl)cc2)nc2nc3c(cc2c1=O)CCCC3,EC50,[20],> 79.4 µM (not active)
same,EC50,[21],> 79.4 µM (not active)
same,EC50,[22],> 79.4 µM (not active)
CC(C)(C)c1ccc2c(c1)OC(C(=O)N/N=C\c1ccc(-c3cccc(C(=O)O)c3)o1)CO2 (stereo unspecified),IC50,[15],> 50 µM (active)
